Tests used:
Mus musculus [1] = assay: Antidepressant-like activity in Swiss albino mouse assessed as reduction of immobility time at 100 mg/kg, ip measured last 4 mins for 6 mins test by tail suspension test (reference value: 116.4 +/- 4.6 sec); format: functional; conditions: route intraperitoneal
Mus musculus [2] = assay: Neurotoxicity in Swiss albino mouse assessed as effect on motor coordination at 100 mg/kg, ip by rotarod test; format: toxicity, organism-based; parameters: dose 100 mg/kg, route intraperitoneal; conditions: in vivo
Mus musculus [3] = assay: Antidepressant-like activity in Swiss albino mouse assessed as effect on climbing time at 100 mg/kg, ip after 24 hrs measured for 5 mins by modified forced swimming test (reference value: 56.8 +/- 2.6 sec); format: functional; conditions: route intraperitoneal
Mus musculus [4] = assay: Antidepressant-like activity in Swiss albino mouse assessed as effect on immobility time at 100 mg/kg, ip after 24 hrs measured for 5 mins by modified forced swimming test (reference value: 102.2 +/- 7.5 sec); format: functional; conditions: route intraperitoneal
Mus musculus [5] = assay: Antidepressant-like activity in Swiss albino mouse assessed as effect on swimming time at 100 mg/kg, ip after 24 hrs measured for 5 mins by modified forced swimming test (reference value: 95 +/- 9.7 sec); format: functional; conditions: route intraperitoneal
Mus musculus [6] = assay: Antidepressant-like activity in Swiss albino mouse assessed as effect on climbing time at 10 mg/kg, ip after 24 hrs measured for 5 mins by modified forced swimming test (reference value: 56.8 +/- 2.6 sec); format: functional; conditions: route intraperitoneal
Mus musculus [7] = assay: Antidepressant-like activity in Swiss albino mouse assessed as effect on immobility time at 10 mg/kg, ip after 24 hrs measured for 5 mins by modified forced swimming test (reference value: 102.2 +/- 7.5 sec); format: functional; conditions: route intraperitoneal
Mus musculus [8] = assay: Antidepressant-like activity in Swiss albino mouse assessed as effect on swimming time at 10 mg/kg, ip after 24 hrs measured for 5 mins by modified forced swimming test (reference value: 95 +/- 9.7 sec); format: functional; conditions: route intraperitoneal
Mus musculus [9] = assay: Antidepressant-like activity in Swiss albino mouse assessed as reduction of immobility time at 10 mg/kg, ip measured last 4 mins for 6 mins test by tail suspension test (reference value: 116.4 +/- 4.6 sec); format: functional; conditions: route intraperitoneal

Structure (SMILES) | Time (Mus musculus [1]) | Activity (Mus musculus [2]) | Time (Mus musculus [3]) | Time (Mus musculus [4]) | Time (Mus musculus [5]) | Time (Mus musculus [6]) | Time (Mus musculus [7]) | Time (Mus musculus [8]) | Time (Mus musculus [9])
Nn1c(CCc2ccc(O)cc2)nnc1SCC(=O)N1N=C(c2cccs2)CC1c1ccc2c(c1)OCO2 (centres undefined) | 96.1 s | Non-toxic | 54.1 s | 69.9 s | 144.7 s | – | – | – | –
Cc1ccc(C2CC(c3cccs3)=NN2C(=O)CSc2nnc(CCc3ccc(O)cc3)n2N)cc1 (centres undefined) | 85.9 s | Non-toxic | 54.4 s | 58.4 s | 147.8 s | – | – | – | –
Nn1c(CCc2ccc(O)cc2)nnc1SCC(=O)N1N=C(c2cccs2)CC1c1ccccc1 (centres undefined) | 69 s | Non-toxic | 43.3 s | 33.3 s | 191.8 s | – | – | – | –
CN(C)c1ccc(C2CC(c3cccs3)=NN2C(=O)CSc2nnc(CCc3ccc(O)cc3)n2N)cc1 (centres undefined) | 93.5 s | Non-toxic | 53.5 s | 66.2 s | 140 s | – | – | – | –
Nn1c(CCc2ccc(O)cc2)nnc1SCC(=O)N1N=C(c2cccs2)CC1c1ccc(Cl)cc1 (centres undefined) | 72.1 s | Non-toxic | 45 s | 40.5 s | 193.7 s | – | – | – | –
CNCCC(Oc1ccc(C(F)(F)F)cc1)c1ccccc1 (centres undefined) [FLUOXETINE] | – | – | – | – | – | 47.8 s | 67.6 s | 148.5 s | 90.6 s
Nn1c(CCc2ccc(O)cc2)nnc1SCC(=O)N1N=C(c2cccs2)CC1c1ccc(F)cc1 (centres undefined) | 78.8 s | Non-toxic | 48.8 s | 52.5 s | 153.3 s | – | – | – | –
